Measurements reported in PubChem BioAssay AID1963873 (Molecular Pharmacology Branch, DTP, NCI, 2024).

Test system: 276233-004-R-J1-PDC KRAS spheroids with HUVEC/MSC, viability
Test: Anticancer human tumor 276233-004-R-J1-PDC patient-derived colon adenocarcinoma cell line growth inhibition [KRAS2]
Conditions: for IC50: curve of first compound; for viability, T/C: stronger effect = lower value
In short: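 Combination screen of spheroid viability in tumor-cell co-cultures with endothelial (HUVEC) and mesenchymal stem cell stroma. Each agent was tested in half-log dilutions, topping at clinical Cmax or at 10 microM without a known Cmax.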

[1] = second compound 0.1 µM, first compound 0.0316 µM
[2] = second compound 0.1 µM, first compound 0.1 µM
[3] = second compound 0.316 µM, first compound 0.0316 µM
[4] = second compound 0.316 µM, first compound 0.1 µM
[5] = second compound 1 µM, first compound 0.0316 µM
[6] = second compound 1 µM, first compound 0.1 µM
[7] = second compound 3.16 µM, first compound 0.0316 µM
[8] = second compound 3.16 µM, first compound 0.1 µM
[9] = second compound 10 µM, first compound 0.0316 µM
[10] = second compound 10 µM, first compound 0.1 µM
[11] = second compound 0.1 µM, first compound 0.316 µM
[12] = second compound 0.1 µM, first compound 1 µM
[13] = second compound 0.1 µM, first compound 3.16 µM
[14] = second compound 0.1 µM, first compound 10 µM
[15] = second compound 0.316 µM, first compound 0.316 µM
[16] = second compound 0.316 µM, first compound 1 µM
[17] = second compound 0.316 µM, first compound 3.16 µM
[18] = second compound 0.316 µM, first compound 10 µM
[19] = second compound 1 µM, first compound 0.316 µM
[20] = second compound 1 µM, first compound 1 µM
[21] = second compound 1 µM, first compound 3.16 µM
[22] = second compound 1 µM, first compound 10 µM
[23] = second compound 3.16 µM, first compound 0.316 µM
[24] = second compound 3.16 µM, first compound 1 µM
[25] = second compound 3.16 µM, first compound 3.16 µM
[26] = second compound 3.16 µM, first compound 10 µM
[27] = second compound 10 µM, first compound 0.316 µM
[28] = second compound 10 µM, first compound 1 µM
[29] = second compound 10 µM, first compound 3.16 µM
[30] = second compound 10 µM, first compound 10 µM
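Note: cells exposed to agents for seven days before viability read.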
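Throughout, for viability, T/C: 100% = DMSO vehicle control wells and lower values mean fewer viable cells.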

| Structure (SMILES) | IC50 (second compound 0.1 µM) [µM] | IC50 (second compound 0.316 µM) [µM] | IC50 (second compound 1 µM) [µM] | IC50 (second compound 3.16 µM) [µM] | IC50 (second compound 10 µM) [µM] | viability, T/C [1] [%] | viability, T/C [2] [%] | viability, T/C [3] [%] | viability, T/C [4] [%] | viability, T/C [5] [%] | viability, T/C [6] [%] | viability, T/C [7] [%] | viability, T/C [8] [%] | viability, T/C [9] [%] | viability, T/C [10] [%] | viability, T/C [11] [%] | viability, T/C [12] [%] | viability, T/C [13] [%] | viability, T/C [14] [%] | viability, T/C [15] [%] | also measured |
| --- | --- | --- | --- | --- | --- | --- | --- | --- | --- | --- | --- | --- | --- | --- | --- | --- | --- | --- | --- | --- | --- |
| CC(C)n1nc(-c2ccc3oc(N)nc3c2)c2c(N)ncnc21 + COc1cc2nc(C)nc(NC(C)c3cc(N)cc(C(F)(F)F)c3)c2cc1OC1CCOC1 | > 0.1 | > 0.1 | 0.0426 | > 0.1 | < 0.000316 | 64.7 | 50.8 | 68 | 56.5 | 54.5 | 46 | 63.2 | 50.3 | 32.2 | 29.3 |  |  |  |  |  | viability, T/C (second compound 0.1 µM, first compound 0.000316 µM): 90.1%; viability, T/C (second compound 0.1 µM, first compound 0.001 µM): 120%; viability, T/C (second compound 0.1 µM, first compound 0.00316 µM): 76.7%; viability, T/C (second compound 0.1 µM, first compound 0.01 µM): 68%; viability, T/C (second compound 0.316 µM, first compound 0.000316 µM): 109%; viability, T/C (second compound 0.316 µM, first compound 0.001 µM): 86.3%; viability, T/C (second compound 0.316 µM, first compound 0.00316 µM): 71.6%; viability, T/C (second compound 0.316 µM, first compound 0.01 µM): 70.9%; viability, T/C (second compound 1 µM, first compound 0.000316 µM): 108%; viability, T/C (second compound 1 µM, first compound 0.001 µM): 92.5%; viability, T/C (second compound 1 µM, first compound 0.00316 µM): 86.5%; viability, T/C (second compound 1 µM, first compound 0.01 µM): 56.8%; viability, T/C (second compound 3.16 µM, first compound 0.000316 µM): 76.7%; viability, T/C (second compound 3.16 µM, first compound 0.001 µM): 83.4%; viability, T/C (second compound 3.16 µM, first compound 0.00316 µM): 76.4%; viability, T/C (second compound 3.16 µM, first compound 0.01 µM): 61.9%; viability, T/C (second compound 10 µM, first compound 0.000316 µM): 18.3%; viability, T/C (second compound 10 µM, first compound 0.001 µM): 22.9%; viability, T/C (second compound 10 µM, first compound 0.00316 µM): 19.1%; viability, T/C (second compound 10 µM, first compound 0.01 µM): 32.5% |
| CC1(C)CCC(CN2CCN(c3ccc(C(=O)NS(=O)(=O)c4ccc(NCC5CCOCC5)c([N+](=O)[O-])c4)c(Oc4cnc5[nH]ccc5c4)c3)CC2)=C(c2ccc(Cl)cc2)C1 + COc1cc2nc(C)nc(NC(C)c3cc(N)cc(C(F)(F)F)c3)c2cc1OC1CCOC1 | > 10 | > 10 | > 10 | > 10 | < 0.0316 | 97.5 | 97 | 104 | 84.8 | 102 | 87.3 | 79.1 | 120 | 23.9 | 31.8 | 73.6 | 95.5 | 68.8 | 69.7 | 95.9 | viability, T/C [16]: 96.3%; viability, T/C [17]: 67%; viability, T/C [18]: 72.8%; viability, T/C [19]: 89.6%; viability, T/C [20]: 87.3%; viability, T/C [21]: 70.1%; viability, T/C [22]: 60.6%; viability, T/C [23]: 81.8%; viability, T/C [24]: 103%; viability, T/C [25]: 78.3%; viability, T/C [26]: 57.8%; viability, T/C [27]: 25%; viability, T/C [28]: 41.3%; viability, T/C [29]: 38.8%; viability, T/C [30]: 54.8% |
| COc1cc(Nc2ncc3c(n2)-c2ccc(Cl)cc2C(c2c(F)cccc2OC)=NC3)ccc1C(=O)O + COc1cc2nc(C)nc(NC(C)c3cc(N)cc(C(F)(F)F)c3)c2cc1OC1CCOC1 | > 10 | > 10 | > 10 | > 10 | < 0.0316 | 79.9 | 78.9 | 83.3 | 69.9 | 91.7 | 67.4 | 70 | 60.4 | 29.1 | 37.9 | 74.3 | 68 | 61.6 | 57.1 | 70.9 | viability, T/C [16]: 69.5%; viability, T/C [17]: 67.2%; viability, T/C [18]: 54.6%; viability, T/C [19]: 63.5%; viability, T/C [20]: 68%; viability, T/C [21]: 58.4%; viability, T/C [22]: 55.2%; viability, T/C [23]: 56.6%; viability, T/C [24]: 54.1%; viability, T/C [25]: 74.6%; viability, T/C [26]: 57.4%; viability, T/C [27]: 30.9%; viability, T/C [28]: 21.2%; viability, T/C [29]: 31.4%; viability, T/C [30]: 17.6% |
| COc1cc2nccc(Oc3ccc(NC(=O)C4(C(=O)Nc5ccc(F)cc5)CC4)cc3)c2cc1OC + COc1cc2nc(C)nc(NC(C)c3cc(N)cc(C(F)(F)F)c3)c2cc1OC1CCOC1 | > 10 | > 10 | > 10 | > 10 | < 0.0316 | 74.9 | 98.7 | 85.9 | 80.8 | 84.7 | 85.7 | 75.8 | 81.1 | 22.5 | 17.7 | 87.2 | 92 | 78.9 | 98.8 | 111 | viability, T/C [16]: 99.7%; viability, T/C [17]: 79.3%; viability, T/C [18]: 101%; viability, T/C [19]: 88.6%; viability, T/C [20]: 71.4%; viability, T/C [21]: 60.2%; viability, T/C [22]: 110%; viability, T/C [23]: 103%; viability, T/C [24]: 60.8%; viability, T/C [25]: 44.2%; viability, T/C [26]: 98.3%; viability, T/C [27]: 19.5%; viability, T/C [28]: 11.5%; viability, T/C [29]: 1.3%; viability, T/C [30]: 26.8% |
